The source of these data is PMC2802337 (Prostaglandins, leukotrienes, and essential fatty acids, 2009).

This assay addresses T1, 15-prostaglandin dehydrogenase/eicosanoid oxidoreductase (EOR) (Homo sapiens, UniProt P15428).
T1 sequence (P15428 1-266): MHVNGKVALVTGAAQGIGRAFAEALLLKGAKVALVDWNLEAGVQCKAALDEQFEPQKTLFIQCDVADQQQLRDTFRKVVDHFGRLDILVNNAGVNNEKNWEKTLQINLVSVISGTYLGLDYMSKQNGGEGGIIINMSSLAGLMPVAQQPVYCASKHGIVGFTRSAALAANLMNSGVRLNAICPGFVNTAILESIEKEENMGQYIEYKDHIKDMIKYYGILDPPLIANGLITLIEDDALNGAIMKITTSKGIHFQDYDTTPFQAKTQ
Put plainly: spectrophotometric NADH formation at […] nm, initial rate of conversion. It is filed as biochemical.

For the molecule `CCCCC[C@H](O)/C=C/C=C\C=C\C=C\[C@@H](O)[C@@H](O)CCCC(=O)O` [LXA4], the “spectrophotometric NADH formation at 340 nm, initial rate of conversion” value turned out to be 3.1 µM/min.
